Assays:
[1] = target: T1, purified recombinant human Aggrecanase-2 (Ag2t-Phe628-Strep) (Homo sapiens, UniProt Q9UNA0); assay: In vitro fluorescence screen for Aggrecanase-2 inhibitors; format: biochemical; details: Table 2; read-out: Agg 2 IC50
T1 construct: the form used is denoted as Ag2t-Phe628-Strep (MW=41,737)
T1 sequence (Q9UNA0 262-628): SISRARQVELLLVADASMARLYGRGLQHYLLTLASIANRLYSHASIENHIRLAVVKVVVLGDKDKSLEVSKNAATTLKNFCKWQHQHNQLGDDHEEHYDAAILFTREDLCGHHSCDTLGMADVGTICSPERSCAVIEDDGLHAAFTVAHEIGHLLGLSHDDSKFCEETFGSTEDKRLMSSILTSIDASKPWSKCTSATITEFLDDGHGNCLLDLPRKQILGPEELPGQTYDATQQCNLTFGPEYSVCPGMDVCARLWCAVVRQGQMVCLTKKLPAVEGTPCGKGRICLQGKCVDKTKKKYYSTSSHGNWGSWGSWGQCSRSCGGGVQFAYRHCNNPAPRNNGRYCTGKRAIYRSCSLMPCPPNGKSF

[2] = target: T2, purified recombinant human Aggrecanase-1 (rAgg1) (Homo sapiens, UniProt O75173); assay: In vitro fluorescence screen for Aggrecanase-1 inhibitors; format: biochemical; details: Table 2; read-out: Agg1 IC50
T2 sequence (O75173 213-837): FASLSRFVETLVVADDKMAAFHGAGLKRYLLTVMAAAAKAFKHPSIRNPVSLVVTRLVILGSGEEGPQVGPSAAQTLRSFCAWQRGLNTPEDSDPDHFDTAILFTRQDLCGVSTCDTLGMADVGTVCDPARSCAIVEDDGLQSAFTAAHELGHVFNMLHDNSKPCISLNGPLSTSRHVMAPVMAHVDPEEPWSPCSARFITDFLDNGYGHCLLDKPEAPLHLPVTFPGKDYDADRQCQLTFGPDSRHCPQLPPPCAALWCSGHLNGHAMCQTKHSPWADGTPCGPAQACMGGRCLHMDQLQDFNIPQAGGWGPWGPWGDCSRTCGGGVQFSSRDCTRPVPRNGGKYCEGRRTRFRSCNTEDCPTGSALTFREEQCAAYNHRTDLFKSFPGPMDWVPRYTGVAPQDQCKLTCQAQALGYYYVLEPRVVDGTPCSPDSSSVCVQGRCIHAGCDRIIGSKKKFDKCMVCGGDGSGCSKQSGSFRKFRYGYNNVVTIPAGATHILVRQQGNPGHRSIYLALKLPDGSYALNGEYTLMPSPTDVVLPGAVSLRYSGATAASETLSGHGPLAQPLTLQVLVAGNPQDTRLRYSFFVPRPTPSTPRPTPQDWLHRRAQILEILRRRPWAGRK

Row | Compound | IC50 [1] | IC50 [2]
1 | O=C(O)CC[C@H](NC(=O)c1ccc(-c2cccc(CO)c2)cc1)C(=O)NCc1ccccc1 [Example 17JJ, N-benzyl-N^2-{[3′-(hydroxymethyl)biphenyl-4-yl]carbonyl}-L-α-glutamine] | 19.5 µM | 2400 nM
2 | CCOc1ccccc1-c1ccc(C(=O)N[C@@H](CCC(=O)O)C(=O)NC(C)(C)Cc2ccccc2)cc1 [Example 17K, N-(1,1-dimethyl-2-phenylethyl)-N^2-[(2′-ethoxybiphenyl-4-yl)carbonyl]-L-α-glutamine] | ~3.7 µM | 1200 nM
3 | Cc1ccc(-c2ccc(C(=O)N[C@@H](CCC(=O)O)C(=O)NC(C)(C)Cc3ccccc3)cc2)cc1F [Example 17L, N-(1,1-dimethyl-2-phenylethyl)-N^2-[(3′-fluoro-4′-methylbiphenyl-4-yl)carbonyl]-L-α-glutamine] | 0.226 µM | 133 nM
4 | CC(C)(Cc1ccccc1)NC(=O)[C@H](CCC(=O)O)NC(=O)c1ccc(-c2ccc(O)cc2)cc1 [Example 17LL, N-(1,1-dimethyl-2-phenylethyl)-N^2-[(4′-hydroxybiphenyl-4-yl)carbonyl]-L-α-glutamine] | 1.19 µM | 87 nM
5 | CCOc1cccc(-c2ccc(C(=O)N[C@@H](CCC(=O)O)C(=O)NC(C)(C)Cc3ccccc3)cc2)c1 [Example 17MM, N-(1,1-dimethyl-2-phenylethyl)-N^2-[(3′-ethoxybiphenyl-4-yl)carbonyl]-L-α-glutamine] | 2.71 µM | 46 nM
6 | Cc1cccc(CNC(=O)[C@H](CCC(=O)O)NC(=O)c2ccc(-c3ccc4c(c3)OCO4)cc2)c1 [Example 17NN, N^2-[4-(1,3-benzodioxol-5-yl)benzoyl]-N-(3-methylbenzyl)-L-α-glutamine] | 0.729 µM | 200 nM
7 | O=C(O)CC[C@H](NC(=O)c1ccc(-c2ccc(O)cc2)cc1)C(=O)NCC12CC3CC(CC(C3)C1)C2 [Example 17O, N-(1-adamantylmethyl)-N^2-[(4′-hydroxybiphenyl-4-yl)carbonyl]-L-α-glutamine] | ~22 µM | 8500 nM
8 | CC(C)(Cc1ccc(F)cc1)NC(=O)[C@H](CCC(=O)O)NC(=O)c1ccc(-c2ccc(O)cc2)cc1 [Example 17OO, N-[2-(4-fluorophenyl)-1,1-dimethylethyl]-N^2-[(4′-hydroxybiphenyl-4-yl)carbonyl]-L-α-glutamine] | 1.68 µM | < 30 nM
9 | CC(C)(Cc1ccccc1)NC(=O)[C@H](CCC(=O)O)NC(=O)c1ccc(-c2ccc3c(c2)OCO3)cc1 [Example 17P, N^2-[4-(1,3-benzodioxol-5-yl)benzoyl]-N-(1,1-dimethyl-2-phenylethyl)-L-α-glutamine] | 0.058 µM | 126 nM

Results, then the molecule that gave them:

Row | IC50 [1] | IC50 [2] | Compound
10 | ~10 µM | 1000 to 3000 nM | COc1cc(CNC(=O)[C@H](CCC(=O)O)NC(=O)c2ccc(-c3ccc(-c4ccccc4)cc3)cc2)cc(OC)c1OC [Example 17II, N^2-(1,1′:4′,1″-terphenyl-4-ylcarbonyl)-N-(3,4,5-trimethoxybenzyl)-L-α-glutamine]
11 | ~30 µM | ~5600 nM | COc1ccc(-c2ccc(C(=O)N[C@@H](CCC(=O)O)C(=O)NC(C)(C)Cc3ccccc3)cc2)cc1OC [Example 17J, N^2-[(3′,4′-dimethoxybiphenyl-4-yl)carbonyl]-N-(1,1-dimethyl-2-phenylethyl)-L-α-glutamine]
12 | > 67 µM | > 25000 nM | COc1cc(CNC(=O)[C@H](CCC(=O)O)NC(=O)c2ccc(-c3c(C)cc(C)cc3C)cc2)cc(OC)c1OC [Example 17KK, N-(3,4,5-trimethoxybenzyl)-N^2-[(2′,4′,6′-trimethylbiphenyl-4-yl)carbonyl]-L-α-glutamine]
13 | > 11 µM | ~310 nM | COc1ccc(-c2ccc(C(=O)NC(CCC(=O)O)C(=O)NCc3cc(OC)c(OC)c(OC)c3)cc2)cc1C (centres unmarked) [Example 17M, 4-[(4′-Methoxy-3′-methyl-biphenyl-4-carbonyl)-amino]-4-(3,4,5-trimethoxy-benzylcarbamoyl)-butyric acid]

— patent publication US7998965B2, “Glutamate aggrecanase inhibitors” (Wyeth LLC, priority 2005, dated 2011)
